What all share (assay): NCI anticancer screen, dose series, 48 h
Experiment [1] has as its system BT-549 breast.
The test system of experiment [2] is SK-OV-3 ovarian.
The subject of experiment [3] is 786-0 renal.
Experiment [4] relates to SR leukemia.
In experiment [5] the test system is SNB-19 CNS.
The test system of experiment [6] is SF-295 CNS.
Experiment [7] deals with MCF7 breast.
Experiment [8] relates to HOP-62 NSCLC.
The test system of experiment [9] is HCT-15 colon.
The test system of experiment [10] is EKVX NSCLC.

The structures appear in SMILES notation. “And” between values parts separate entries of the source, which are not always exact repeats. Equal entries are not always repeated.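 48-hour exposure; five concentrations; linearly interpolated endpoints. The concentration for 50% growth inhibition is given as GI50. At the TGI there is no net growth.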 A value given as a limit tells only on which side of the number the result lay.

Take `C=C1C(=O)O[C@H]2[C@H]1CC/C(COC(=O)N[C@H](Cc1c[nH]c3ccccc13)C(=O)OC)=C\CC[C@@]1(C)O[C@@H]21`: the GI50 in [1] was 1.37 µM; in experiment [2] it was 13.4 µM; in experiment [3], 1.28 µM; in experiment [4] it was 2.58 µM; in experiment [5] it was 8.75 µM; in experiment [6], 10.7 µM. The GI50 in experiment [7] was 1.24 µM; in [8], 12.5 µM; in experiment [9] it was 1.53 µM; in experiment [10] it was 1.8 µM. Also, the TGI in [1] was 2.96 µM; in experiment [2], 26.4 µM; in experiment [3], 2.95 µM; in [4] it was 10.5 µM; in [5], 22.6 µM; in [6], 22.7 µM. Moreover, the TGI in experiment [7] came to 2.99 µM; in experiment [8], 28.5 µM; in [9], 3.43 µM; in experiment [10], 5.66 µM.

As for `C=C1C(=O)O[C@H]2[C@H]1CC/C(COC(=O)/C=C\C(=O)NCc1ccc(Cn3c(=O)sn(-c4ccc(Cl)cc4)c3=O)cc1)=C\CC[C@@]1(C)O[C@@H]21`, the GI50 in [1] was 0.591 µM; in experiment [2] it was 4.04 µM; in experiment [3] it was 0.658 µM; in [4] it was 0.24 µM; in [5], 0.831 µM; in experiment [6] it was 3.11 µM. The GI50 in experiment [7] was 0.36 µM; in experiment [8], 2.12 µM; in experiment [9], 0.331 µM; in experiment [10], 0.809 µM. In addition, the TGI in [1] is 1.51 µM; in experiment [2], 10.7 µM; in [3], 1.39 µM; in [4], 12.3 µM; in experiment [5], 1.67 µM; in experiment [6], 8.8 µM. Further, the TGI in experiment [7] was determined as 1.41 µM; in experiment [8] it was 7.63 µM; in experiment [9] it was 1.47 µM; in experiment [10] it was 1.58 µM.

With `CCCCNCCCCCNc1cc(OC)cc2cccnc12`, the GI50 in experiment [1] is 14.5 µM; in experiment [2], 18.4 µM; in experiment [3] it was 14.6 µM; in experiment [4] it was 28.6 µM; in experiment [5], 13.8 µM; in experiment [6] it was 28.4 µM. Further, the GI50 was greater than 100 µM in experiment [7], 15.1 µM in [8], 47.9 µM in [9] and 29.6 µM in experiment [10]. The TGI in [1] is 28.8 µM; in [2] it was 35.9 µM; in experiment [3] it was 28.2 µM; in experiment [4], greater than 100 µM; in experiment [5] it was 31.5 µM; in experiment [6], 84.9 µM. In addition, the TGI was greater than 100 µM in experiment [7], 30.1 µM in experiment [8], greater than 100 µM in experiment [9] and 99.2 µM in [10].

As for `O=c1[nH]c(=O)n(C2OC(CO)C(O)C2O)cc1F` (stereo not drawn), the TGI is greater than 100 µM in experiment [1]; greater than 97.4 µM in experiment [2]; 21.1 µM in experiment [3]; greater than 100 µM in experiment [5]; greater than 100 µM in experiment [6]; greater than 56.4 µM in [7]. The TGI in experiment [8] is 8.59 µM; in [9], greater than 72.5 µM; in experiment [10] it was greater than 93.8 µM. Further, the GI50 in experiment [3] was 0.0462 µM; in experiment [4], 0.0274 µM; in experiment [7] it was 0.00603 µM and < 0.0164 µM; in experiment [9] it was 0.0207 µM.

As for `CCSCCCC(=O)O`, the TGI in experiment [1], in [2], in [3], in experiment [4], in [5] and in experiment [6] was greater than 100 µM throughout. Moreover, the TGI in [7], in experiment [8], in [9] and in [10] was greater than 100 µM in each case.

Consider `COc1ccc(C(Nc2ccccn2)c2cc(C(C)(C)C)cc(C(C)(C)C)c2O)cc1` (stereo not drawn), for which the TGI in experiment [1] is 56.8 µM; in experiment [2], greater than 100 µM; in [3] it was greater than 100 µM; in experiment [4], greater than 100 µM; in [5], greater than 100 µM; in experiment [6] it was 59.3 µM. For the same molecule, the TGI is greater than 100 µM in experiment [7], 78.2 µM in experiment [8], greater than 100 µM in [9] and greater than 100 µM in experiment [10].

For `O=C(O)c1[nH]c2c([N+](=O)[O-])cc([N+](=O)[O-])cc2c1C(=O)O`, the TGI in experiment [1], in experiment [2], in experiment [3], in experiment [4], in [5] and in [6] was greater than 100 µM throughout. In addition, the TGI in experiment [7], in experiment [8], in [9] and in experiment [10] was greater than 100 µM each time.

As for `C[C@@H](Oc1cc(-c2cnn(C3CCNCC3)c2)cnc1N)c1c(Cl)cc(F)cc1Cl`, the GI50 was 4.08 µM in [1]; 3.26 µM in experiment [2]; 2.13 µM in [3]; 0.0497 µM in experiment [4]; 3.46 µM in experiment [5]; 0.505 µM in experiment [6]. Further, the GI50 in experiment [7] was 0.516 µM; in [8], 2 µM; in experiment [9] it was 2.7 µM; in experiment [10] it was 3.72 µM. Further, the TGI in experiment [1] came to 13 µM; in [2] it was 10.8 µM; in experiment [3], 4.84 µM; in experiment [4], 1.52 µM; in experiment [5], 14.3 µM; in experiment [6], 7.23 µM. Moreover, the TGI in [7] was 2.12 µM; in [8], 9.52 µM; in [9] it was 12.5 µM; in experiment [10] it was 17.3 µM.

As for `Cc1ccc(NC2=CC(=O)C(=O)c3ccccc32)cc1`, the GI50 in experiment [1] was 1.73 µM; in experiment [2], 11.3 µM; in experiment [3], 15 µM; in [4] it was 3.96 µM; in experiment [5], 2.09 µM; in experiment [6], 1.7 µM. In addition, the GI50 in experiment [7] is 1.54 µM; in [8], 1.8 µM; in experiment [9] it was 1.49 µM; in [10], 4 µM. In addition, the TGI in experiment [1] is 3.31 µM; in experiment [2], 23.5 µM; in [3] it was greater than 100 µM; in experiment [4] it was greater than 100 µM; in [5], 4.96 µM; in [6], 3.15 µM. Besides, the TGI in experiment [7] stood at 3.63 µM; in experiment [8], 4.33 µM; in experiment [9], 3.91 µM; in [10], 18.9 µM.

The values are drawn from PubChem BioAssay (NCI).
